{"source": "patent US10966978B2", "about": "“Dose and regimen for HDM2-p53 interaction inhibitors” (Novartis AG, priority 2016, dated 2021)", "system": "patients with advanced TP53 wild-type (WT) leukemias", "note": "Like-named read-outs stand apart in the source and are kept apart here.", "from_the_text": "Patients with Ph+ ALL who show early markers of relapse in MRD surveillance can be considered for inclusion as long as other therapies such as TKIs are exhausted or cannot be given. • Tumor of the patient is TP53 wt characterized by, at a minimum, no mutations in exons 5, 6, 7 and 8, and the p53 status was obtained from a bone-marrow sample, collected no longer than 3 months before signing the main ICF. Safety and Tolerability Profile of Regimen 1B in Hematological Tumors", "data": [{"compound": "COc1ncc(-c2nc3c(n2C(C)C)[C@H](c2ccc(Cl)cc2)N(c2cc(Cl)cn(C)c2=O)C3=O)c(OC)n1", "note": "[HDM201, (S)-5-(5-Chloro-1-methyl-2-oxo-1,2-dihydro-pyridin-3-yl)-6-(4-chloro-phenyl)-2-(2,4-dimethoxy-pyrimidin-5-yl)-1-isopropyl-5,6-dihydro-1H-pyrrolo[3,4-d]imidazol-4-one]", "values": [{"measurement": "AE: Stomatitis", "setting": "Regimen 1B N = 6, All Grades", "result": "0 n (%)"}, {"measurement": "AE: Subarachnoid Haemorrhage", "setting": "Regimen 1B N = 6, All Grades", "result": "0 n (%)"}, {"measurement": "AE: Thrombocytopenia/Platelet Count Decreased", "setting": "Regimen 1B N = 6, All Grades", "result": "3 (50.0) n (%)"}, {"measurement": "AE: Total", "setting": "Regimen 1B N = 6, All Grades", "result": "5 (83.3) n (%)"}, {"measurement": "AE: Tumour Lysis Syndrome", "setting": "Regimen 1B N = 6, All Grades", "result": "0 n (%)"}, {"measurement": "AE: Vomiting", "setting": "Regimen 1B N = 6, All Grades", "result": "0 n (%)"}, {"measurement": "AE: Weight Decreased", "setting": "Regimen 1B N = 6, All Grades", "result": "0 n (%)"}, {"measurement": "AE: White Blood Cell Count Decreased", "setting": "Regimen 1B N = 6, All Grades", "result": "0 n (%)"}, {"measurement": "AE: Abdominal Discomfort", "setting": "Regimen 1B N = 6, Grade 3/4", "result": "0 n (%)"}, {"measurement": "AE: Abdominal Pain", "setting": "Regimen 1B N = 6, Grade 3/4", "result": "0 n (%)"}, {"measurement": "AE: Abdominal Pain Upper", "setting": "Regimen 1B N = 6, Grade 3/4", "result": "0 n (%)"}, {"measurement": "AE: Acute Kidney Injury", "setting": "Regimen 1B N = 6, Grade 3/4", "result": "1 (16.7) n (%)"}, {"measurement": "AE: Amylase Increased", "setting": "Regimen 1B N = 6, Grade 3/4", "result": "0 n (%)"}, {"measurement": "AE: Anaemia", "setting": "Regimen 1B N = 6, Grade 3/4", "result": "2 (33.3) n (%)"}, {"measurement": "AE: Arthralgia", "setting": "Regimen 1B N = 6, Grade 3/4", "result": "0 n (%)"}, {"measurement": "AE: Asthenia", "setting": "Regimen 1B N = 6, Grade 3/4", "result": "0 n (%)"}, {"measurement": "AE: Atrial Fibrillation", "setting": "Regimen 1B N = 6, Grade 3/4", "result": "0 n (%)"}, {"measurement": "AE: Atypical Pneumonia", "setting": "Regimen 1B N = 6, Grade 3/4", "result": "0 n (%)"}, {"measurement": "AE: Balanitis Candida", "setting": "Regimen 1B N = 6, Grade 3/4", "result": "0 n (%)"}, {"measurement": "AE: Blood Alkaline Phosphatase Increased", "setting": "Regimen 1B N = 6, Grade 3/4", "result": "0 n (%)"}, {"measurement": "AE: Blood Bilirubin Increased", "setting": "Regimen 1B N = 6, Grade 3/4", "result": "0 n (%)"}, {"measurement": "AE: Blood Creatinine Increased", "setting": "Regimen 1B N = 6, Grade 3/4", "result": "0 n (%)"}, {"measurement": "AE: Blood Phosphorus Increased", "setting": "Regimen 1B N = 6, Grade 3/4", "result": "0 n (%)"}, {"measurement": "AE: Blood Uric Acid Increased", "setting": "Regimen 1B N = 6, Grade 3/4", "result": "0 n (%)"}, {"measurement": "AE: Bone Marrow Failure", "setting": "Regimen 1B N = 6, Grade 3/4", "result": "0 n (%)"}, {"measurement": "AE: C-Reactive Protein Increased", "setting": "Regimen 1B N = 6, Grade 3/4", "result": "0 n (%)"}, {"measurement": "AE: Cardiac Failure", "setting": "Regimen 1B N = 6, Grade 3/4", "result": "0 n (%)"}, {"measurement": "AE: Cellulitis", "setting": "Regimen 1B N = 6, Grade 3/4", "result": "1 (16.7) n (%)"}, {"measurement": "AE: Chronic Graft Versus Host Disease", "setting": "Regimen 1B N = 6, Grade 3/4", "result": "0 n (%)"}, {"measurement": "AE: Conjunctival Haemorrhage", "setting": "Regimen 1B N = 6, Grade 3/4", "result": "0 n (%)"}, {"measurement": "AE: Constipation", "setting": "Regimen 1B N = 6, Grade 3/4", "result": "0 n (%)"}, {"measurement": "AE: Cough", "setting": "Regimen 1B N = 6, Grade 3/4", "result": "0 n (%)"}, {"measurement": "AE: Cystitis Viral", "setting": "Regimen 1B N = 6, Grade 3/4", "result": "0 n (%)"}, {"measurement": "AE: Cytomegalovirus Infection", "setting": "Regimen 1B N = 6, Grade 3/4", "result": "0 n (%)"}, {"measurement": "AE: Decreased Appetite", "setting": "Regimen 1B N = 6, Grade 3/4", "result": "0 n (%)"}, {"measurement": "AE: Diarrhoea", "setting": "Regimen 1B N = 6, Grade 3/4", "result": "0 n (%)"}, {"measurement": "AE: Dyspepsia", "setting": "Regimen 1B N = 6, Grade 3/4", "result": "0 n (%)"}, {"measurement": "AE: Dyspnoea", "setting": "Regimen 1B N = 6, Grade 3/4", "result": "0 n (%)"}, {"measurement": "AE: Epistaxis", "setting": "Regimen 1B N = 6, Grade 3/4", "result": "0 n (%)"}, {"measurement": "AE: Fatigue", "setting": "Regimen 1B N = 6, Grade 3/4", "result": "0 n (%)"}, {"measurement": "AE: Febrile Neutropenia", "setting": "Regimen 1B N = 6, Grade 3/4", "result": "2 (33.3) n (%)"}, {"measurement": "AE: Gamma-Glutamyltransferase Increased", "setting": "Regimen 1B N = 6, Grade 3/4", "result": "0 n (%)"}, {"measurement": "AE: General Physical Health Deterioration", "setting": "Regimen 1B N = 6, Grade 3/4", "result": "0 n (%)"}, {"measurement": "AE: Gingival Bleeding", "setting": "Regimen 1B N = 6, Grade 3/4", "result": "0 n (%)"}, {"measurement": "AE: Graft Versus Host Disease", "setting": "Regimen 1B N = 6, Grade 3/4", "result": "0 n (%)"}, {"measurement": "AE: Haemoglobin Decreased", "setting": "Regimen 1B N = 6, Grade 3/4", "result": "0 n (%)"}, {"measurement": "AE: Headache", "setting": "Regimen 1B N = 6, Grade 3/4", "result": "0 n (%)"}, {"measurement": "AE: Hyperbilirubinaemia", "setting": "Regimen 1B N = 6, Grade 3/4", "result": "0 n (%)"}, {"measurement": "AE: Hyperglycaemia", "setting": "Regimen 1B N = 6, Grade 3/4", "result": "0 n (%)"}, {"measurement": "AE: Hyperkalaemia", "setting": "Regimen 1B N = 6, Grade 3/4", "result": "1 (16.7) n (%)"}, {"measurement": "AE: Hyperphosphataemia", "setting": "Regimen 1B N = 6, Grade 3/4", "result": "0 n (%)"}, {"measurement": "AE: Hyperuricaemia", "setting": "Regimen 1B N = 6, Grade 3/4", "result": "0 n (%)"}, {"measurement": "AE: Hypoalbuminaemia", "setting": "Regimen 1B N = 6, Grade 3/4", "result": "0 n (%)"}, {"measurement": "AE: Hypocalcaemia", "setting": "Regimen 1B N = 6, Grade 3/4", "result": "0 n (%)"}, {"measurement": "AE: Hypokalaemia", "setting": "Regimen 1B N = 6, Grade 3/4", "result": "0 n (%)"}, {"measurement": "AE: Hypomagnesaemia", "setting": "Regimen 1B N = 6, Grade 3/4", "result": "0 n (%)"}, {"measurement": "AE: Hyponatraemia", "setting": "Regimen 1B N = 6, Grade 3/4", "result": "0 n (%)"}, {"measurement": "AE: Hypophosphataemia", "setting": "Regimen 1B N = 6, Grade 3/4", "result": "0 n (%)"}, {"measurement": "AE: Hypotension", "setting": "Regimen 1B N = 6, Grade 3/4", "result": "0 n (%)"}, {"measurement": "AE: Infection", "setting": "Regimen 1B N = 6, Grade 3/4", "result": "0 n (%)"}, {"measurement": "AE: Infective Glossitis", "setting": "Regimen 1B N = 6, Grade 3/4", "result": "0 n (%)"}, {"measurement": "AE: Iron Overload", "setting": "Regimen 1B N = 6, Grade 3/4", "result": "0 n (%)"}, {"measurement": "AE: Leukopenia", "setting": "Regimen 1B N = 6, Grade 3/4", "result": "0 n (%)"}, {"measurement": "AE: Lip Oedema", "setting": "Regimen 1B N = 6, Grade 3/4", "result": "0 n (%)"}, {"measurement": "AE: Lipase Increased", "setting": "Regimen 1B N = 6, Grade 3/4", "result": "0 n (%)"}, {"measurement": "AE: Macular Oedema", "setting": "Regimen 1B N = 6, Grade 3/4", "result": "1 (16.7) n (%)"}, {"measurement": "AE: Malaise", "setting": "Regimen 1B N = 6, Grade 3/4", "result": "0 n (%)"}, {"measurement": "AE: Mouth Haemorrhage", "setting": "Regimen 1B N = 6, Grade 3/4", "result": "0 n (%)"}, {"measurement": "AE: Nausea", "setting": "Regimen 1B N = 6, Grade 3/4", "result": "0 n (%)"}, {"measurement": "AE: Neutropenia/Neutrophil Count Decreased", "setting": "Regimen 1B N = 6, Grade 3/4", "result": "1 (16.7) n (%)"}, {"measurement": "AE: Oedema", "setting": "Regimen 1B N = 6, Grade 3/4", "result": "0 n (%)"}, {"measurement": "AE: Oedema Peripheral", "setting": "Regimen 1B N = 6, Grade 3/4", "result": "0 n (%)"}, {"measurement": "AE: Oral Disorder", "setting": "Regimen 1B N = 6, Grade 3/4", "result": "0 n (%)"}, {"measurement": "AE: Pain In Extremity", "setting": "Regimen 1B N = 6, Grade 3/4", "result": "0 n (%)"}, {"measurement": "AE: Pancytopenia", "setting": "Regimen 1B N = 6, Grade 3/4", "result": "1 (16.7) n (%)"}, {"measurement": "AE: Pneumonia", "setting": "Regimen 1B N = 6, Grade 3/4", "result": "0 n (%)"}, {"measurement": "AE: Pollakiuria", "setting": "Regimen 1B N = 6, Grade 3/4", "result": "0 n (%)"}, {"measurement": "AE: Pyrexia", "setting": "Regimen 1B N = 6, Grade 3/4", "result": "0 n (%)"}, {"measurement": "AE: Rash", "setting": "Regimen 1B N = 6, Grade 3/4", "result": "0 n (%)"}, {"measurement": "AE: Rash Erythematous", "setting": "Regimen 1B N = 6, Grade 3/4", "result": "0 n (%)"}, {"measurement": "AE: Rash Papular", "setting": "Regimen 1B N = 6, Grade 3/4", "result": "0 n (%)"}, {"measurement": "AE: Rectal Haemorrhage", "setting": "Regimen 1B N = 6, Grade 3/4", "result": "0 n (%)"}, {"measurement": "AE: Renal Failure", "setting": "Regimen 1B N = 6, Grade 3/4", "result": "0 n (%)"}, {"measurement": "AE: Skin Exfoliation", "setting": "Regimen 1B N = 6, Grade 3/4", "result": "0 n (%)"}, {"measurement": "AE: Stomatitis", "setting": "Regimen 1B N = 6, Grade 3/4", "result": "0 n (%)"}, {"measurement": "AE: Subarachnoid Haemorrhage", "setting": "Regimen 1B N = 6, Grade 3/4", "result": "0 n (%)"}, {"measurement": "AE: Thrombocytopenia/Platelet Count Decreased", "setting": "Regimen 1B N = 6, Grade 3/4", "result": "3 (50.0) n (%)"}, {"measurement": "AE: Total", "setting": "Regimen 1B N = 6, Grade 3/4", "result": "5 (83.3) n (%)"}, {"measurement": "AE: Tumour Lysis Syndrome", "setting": "Regimen 1B N = 6, Grade 3/4", "result": "0 n (%)"}, {"measurement": "AE: Vomiting", "setting": "Regimen 1B N = 6, Grade 3/4", "result": "0 n (%)"}, {"measurement": "AE: Weight Decreased", "setting": "Regimen 1B N = 6, Grade 3/4", "result": "0 n (%)"}, {"measurement": "AE: White Blood Cell Count Decreased", "setting": "Regimen 1B N = 6, Grade 3/4", "result": "0 n (%)"}, {"measurement": "AE: Abdominal Discomfort", "setting": "Regimen 2A N = 7, All Grades", "result": "0 n (%)"}, {"measurement": "AE: Abdominal Pain", "setting": "Regimen 2A N = 7, All Grades", "result": "0 n (%)"}, {"measurement": "AE: Abdominal Pain Upper", "setting": "Regimen 2A N = 7, All Grades", "result": "0 n (%)"}, {"measurement": "AE: Acute Kidney Injury", "setting": "Regimen 2A N = 7, All Grades", "result": "1 (14.3) n (%)"}, {"measurement": "AE: Amylase Increased", "setting": "Regimen 2A N = 7, All Grades", "result": "0 n (%)"}, {"measurement": "AE: Anaemia", "setting": "Regimen 2A N = 7, All Grades", "result": "3 (42.9) n (%)"}, {"measurement": "AE: Arthralgia", "setting": "Regimen 2A N = 7, All Grades", "result": "0 n (%)"}, {"measurement": "AE: Asthenia", "setting": "Regimen 2A N = 7, All Grades", "result": "0 n (%)"}, {"measurement": "AE: Atrial Fibrillation", "setting": "Regimen 2A N = 7, All Grades", "result": "0 n (%)"}, {"measurement": "AE: Atypical Pneumonia", "setting": "Regimen 2A N = 7, All Grades", "result": "0 n (%)"}, {"measurement": "AE: Balanitis Candida", "setting": "Regimen 2A N = 7, All Grades", "result": "0 n (%)"}, {"measurement": "AE: Blood Alkaline Phosphatase Increased", "setting": "Regimen 2A N = 7, All Grades", "result": "0 n (%)"}, {"measurement": "AE: Blood Bilirubin Increased", "setting": "Regimen 2A N = 7, All Grades", "result": "0 n (%)"}]}]}
